# Key:
# rice blast = assay: microbe, parasite or virus in culture; format: cell-based; conditions: Pyricularia oryzae; for inhibition at 8.3 ppm: read-out: inhibition rate against rice blast, 8.3 ppm, in vitro; for inhibition at 25 ppm: read-out: inhibition rate against rice blast, 25 ppm, in vitro
# armyworm = assay: bioactivity test against armyworm, airbrush spray; format: in vivo; conditions: 72 h; for pest or weed control at 10 µg/mL: 10 mg/L; for pest or weed control at 10 µg/mL / pest or weed control at 100 µg/mL / pest or weed control at 600 µg/mL: read-out: Insecticidal activity against armyworm (%); for pest or weed control at 100 µg/mL: 100 mg/L; for pest or weed control at 600 µg/mL: 600 mg/L
# [1] = test system: Green peach aphids (Myzus Persicae Sulzer); assay: bioactivity test against green peach aphid, airbrush foliar spray; format: in vivo; conditions: Myzus persicae, foliar, 48 h; for pest or weed control at 2.5 µg/mL: 2.5 mg/L; for pest or weed control at 5 µg/mL: 5 mg/L; for pest or weed control at 10 µg/mL: 10 mg/L; for pest or weed control at 100 µg/mL: 100 mg/L; for pest or weed control at 600 µg/mL: 600 mg/L
# How it was run: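 Death rate was scored at 48 hrs, held at 25±1 C and 60±5% RH, following airbrush foliar spray (0.5 mL, 10 psi) onto cabbage leaf discs bearing about 15-30 aphids. Test solutions: compound dissolved in 1:1 acetone:methanol, brought to concentration with 0.1% tween 80 water.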
# [2] = concentration of 50 ppm; cited from earlier work
# [3] = concentration of 400 and 100 ppm; cited from earlier work
# corn rust = assay: protectant activity in vivo against corn rust; conditions: Zea mays, 168 h; for pest or weed control at 25 µg/mL: read-out: control effect against corn rust (%), 25 mg/L; for pest or weed control at 100 µg/mL: read-out: control effect against corn rust (%), 100 mg/L; for pest or weed control at 400 µg/mL: read-out: control effect against corn rust (%), 400 mg/L; for pest or weed control at 100 ppm: read-out: protectant activity against corn rust in vivo, 100 ppm; for pest or weed control at 400 ppm: read-out: protectant activity against corn rust in vivo, 400 ppm
# wheat powdery mildew = assay: protectant activity in vivo against wheat powdery mildew; conditions: Triticum aestivum, 168 h; for pest or weed control at 100 µg/mL: read-out: control effect against wheat powdery mildew (%), 100 mg/L; for pest or weed control at 100 µg/mL / pest or weed control at 400 µg/mL / pest or weed control at 6.25 µg/mL / pest or weed control at 25 µg/mL: protectant activity; for pest or weed control at 400 µg/mL: read-out: control effect against wheat powdery mildew (%), 400 mg/L; for pest or weed control at 400 ppm: read-out: protectant activity against wheat powdery mildew in vivo, 400 ppm; for pest or weed control at 6.25 µg/mL: read-out: control effect against wheat powdery mildew (%), 6.25 mg/L; for pest or weed control at 25 µg/mL: read-out: control effect against wheat powdery mildew (%), 25 mg/L
# cucumber gray mold = assay: fungicidal activity in vitro (inhibition rate) against cucumber gray mold; format: cell-based; conditions: 25 ppm, in vitro; read-out: inhibition rate against cucumber gray mold
# cucumber downy mildew = assay: protectant activity in vivo against cucumber downy mildew; conditions: Cucumis sativus, 168 h; for pest or weed control at 100 ppm: read-out: protectant activity against cucumber downy mildew in vivo, 100 ppm; for pest or weed control at 6.25 µg/mL: read-out: control effect against cucumber downy mildew (%), 6.25 mg/L; for pest or weed control at 6.25 µg/mL / pest or weed control at 12.5 µg/mL / pest or weed control at 25 µg/mL / pest or weed control at 50 µg/mL / pest or weed control at 100 µg/mL / pest or weed control at 400 µg/mL: protectant activity; for pest or weed control at 12.5 µg/mL: read-out: control effect against cucumber downy mildew (%), 12.5 mg/L; for pest or weed control at 25 µg/mL: read-out: control effect against cucumber downy mildew (%), 25 mg/L; for pest or weed control at 50 µg/mL: read-out: control effect against cucumber downy mildew (%), 50 mg/L; for pest or weed control at 100 µg/mL: read-out: control effect against cucumber downy mildew (%), 100 mg/L; for pest or weed control at 400 µg/mL: read-out: control effect against cucumber downy mildew (%), 400 mg/L
# Diamond back moth = assay: insecticidal activity against diamond back moth, airbrush spray; format: in vivo; conditions: 72 h
# How it was run: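 Airbrush leaf-disc spray test: both faces of 2 cm cabbage discs received 0.5 ml of test solution at 0.7 kg/cm^2. Solutions were made in acetone:methanol (1:1) and brought to concentration with 0.1% Tween 80 in water. Ten second-instar larvae per disc, triplicates, were held at 25° C and 60˜70% R.H., with mortality recorded at 72 hrs.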
# carmine spider mite = assay: bioactivity test against carmine spider mite, airbrush spray; format: in vivo; conditions: Tetranychus cinnabarinus, 72 h
# How it was run: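 Broadbean seedlings infested with adult mites were sprayed with compound (acetone/methanol stock diluted in 0.1% Tween 80 water) by airbrush at 0.7 kg/cm^2, 0.5 ml. Three replicates were run. Mortality was scored after 72 hrs.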
# [4] = contrastive test, read-out: Insecticidal activity against peach aphid (%)
smiles,measurement,setting,value
"Clc1ccc(Oc2ccc(CCNc3ncnc4ccccc34)cn2)cc1 [CK18, reference compound]",inhibition at 8.3 ppm,rice blast,0%
same,pest or weed control at 10 µg/mL,armyworm,14%
same,pest or weed control at 100 µg/mL,armyworm,43%
same,pest or weed control at 600 µg/mL,armyworm,100%
same,pest or weed control at 2.5 µg/mL,[1]; [4],0%
same,pest or weed control at 5 µg/mL,[1]; [4],7%
same,pest or weed control at 10 µg/mL,[1]; [4],51%
same,pest or weed control at 100 µg/mL,[1]; [4],71%
same,pest or weed control at 600 µg/mL,[1]; [4],100%
same,insectcidal activity,[2],good insectcidal activity
same,fungicidal activity,[3],good fungicidal activity
same,pest or weed control at 25 µg/mL,corn rust; protectant activity,0%
same,pest or weed control at 100 µg/mL,corn rust; protectant activity,30%
same,pest or weed control at 400 µg/mL,corn rust; protectant activity,80%
"FC(F)(F)c1ccc(Oc2ccc(CCNc3ncnc4ccccc34)cn2)cc1 [CK19, reference compound]",inhibition at 8.3 ppm,rice blast,0%
same,pest or weed control at 10 µg/mL,armyworm,7%
same,pest or weed control at 100 µg/mL,armyworm,25%
same,pest or weed control at 600 µg/mL,armyworm,86%
same,pest or weed control at 10 µg/mL,[1]; [4],33%
same,pest or weed control at 100 µg/mL,[1]; [4],86%
same,pest or weed control at 600 µg/mL,[1]; [4],100%
same,insectcidal activity,[2],good insectcidal activity
same,fungicidal activity,[3],good fungicidal activity
same,pest or weed control at 100 µg/mL,corn rust; protectant activity,0%
same,pest or weed control at 400 µg/mL,corn rust; protectant activity,70%
same,pest or weed control at 100 µg/mL,wheat powdery mildew,0%
same,pest or weed control at 400 µg/mL,wheat powdery mildew,50%
COc1cc(OC)nc(Oc2ccc(CCNc3ncnc(C)c3Cl)cc2)n1 [Compound I-4757],inhibition at 25 ppm,rice blast,80 to 99%
same,inhibition at 25 ppm,cucumber gray mold,100%
same,melting point,,119 to 120 °C
same,pest or weed control at 25 ppm,"corn rust; read-out: protectant activity against corn rust in vivo, 25 ppm",80 to 99%
same,pest or weed control at 100 ppm,corn rust,100%
same,pest or weed control at 400 ppm,corn rust,100%
same,pest or weed control at 400 ppm,wheat powdery mildew,100%
same,pest or weed control at 100 ppm,cucumber downy mildew,100%
same,pest or weed control at 400 ppm,"cucumber downy mildew; read-out: protectant activity against cucumber downy mildew in vivo, 400 ppm",100%
CCc1ncnc(NCCc2ccc(Oc3ccc(C(F)(F)F)cc3)nc2)c1Cl [III-202],inhibition at 25 ppm,rice blast,80 to 99%
same,inhibition at 25 ppm,cucumber gray mold,80 to 99%
same,pest or weed control at 100 ppm,"Diamond back moth; 100 ppm, mortality after 72 hrs, read-out: control (test results against diamond back moth)",80 to 99%
same,pest or weed control at 600 ppm,"Diamond back moth; 600 ppm, mortality after 72 hrs, read-out: control (test results against diamond back moth)",100%
same,pest or weed control at 10 µg/mL,armyworm,65%
same,pest or weed control at 100 µg/mL,armyworm,100%
same,pest or weed control at 600 µg/mL,armyworm,100%
same,pest or weed control at 100 ppm,"armyworm; 100 ppm, mortality after 72 h",100%
same,pest or weed control at 600 ppm,"armyworm; 600 ppm, mortality after 72 h",100%
same,pest or weed control at 1.25 µg/mL,"[1]; 1.25 mg/L, contrastive test, read-out: Insecticidal activity against peach aphid (%)",94%
same,pest or weed control at 2.5 µg/mL,[1]; [4],100%
same,pest or weed control at 5 µg/mL,[1]; [4],100%
same,pest or weed control at 10 µg/mL,[1]; [4],100%
same,pest or weed control at 100 µg/mL,[1]; [4],100%
same,pest or weed control at 600 µg/mL,[1]; [4],100%
same,pest or weed control at 10 ppm,"[1]; 10 ppm, death rate after 48 hrs",100%
same,pest or weed control at 100 ppm,"[1]; 100 ppm, death rate after 48 hrs",100%
same,pest or weed control at 600 ppm,"[1]; 600 ppm, death rate after 48 hrs",100%
same,pest or weed control at 100 ppm,"carmine spider mite; 100 ppm, mortality after 72 hrs",100%
same,pest or weed control at 600 ppm,"carmine spider mite; 600 ppm, mortality after 72 hrs",100%
same,pest or weed control at 100 ppm,corn rust,100%
same,pest or weed control at 400 ppm,corn rust,100%
same,pest or weed control at 6.25 µg/mL,wheat powdery mildew,95%
same,pest or weed control at 25 µg/mL,wheat powdery mildew,100%
same,pest or weed control at 100 µg/mL,wheat powdery mildew,100%
same,pest or weed control at 400 µg/mL,wheat powdery mildew,100%
same,pest or weed control at 6.25 ppm,"wheat powdery mildew; read-out: protectant activity against wheat powdery mildew in vivo, 6.25 ppm",80 to 99%
same,pest or weed control at 25 ppm,"wheat powdery mildew; read-out: protectant activity against wheat powdery mildew in vivo, 25 ppm",100%
same,pest or weed control at 100 ppm,"wheat powdery mildew; read-out: protectant activity against wheat powdery mildew in vivo, 100 ppm",100%
same,pest or weed control at 400 ppm,wheat powdery mildew,100%
same,pest or weed control at 6.25 µg/mL,cucumber downy mildew,100%
same,pest or weed control at 12.5 µg/mL,cucumber downy mildew,100%
same,pest or weed control at 25 µg/mL,cucumber downy mildew,100%
same,pest or weed control at 50 µg/mL,cucumber downy mildew,100%
same,pest or weed control at 100 µg/mL,cucumber downy mildew,100%
same,pest or weed control at 400 µg/mL,cucumber downy mildew,100%
same,pest or weed control at 6.25 ppm,"cucumber downy mildew; read-out: protectant activity against cucumber downy mildew in vivo, 6.25 ppm",100%
same,pest or weed control at 12.5 ppm,"cucumber downy mildew; read-out: protectant activity against cucumber downy mildew in vivo, 12.5 ppm",100%
same,pest or weed control at 25 ppm,"cucumber downy mildew; read-out: protectant activity against cucumber downy mildew in vivo, 25 ppm",100%
same,pest or weed control at 50 ppm,"cucumber downy mildew; read-out: protectant activity against cucumber downy mildew in vivo, 50 ppm",100%
same,pest or weed control at 100 ppm,cucumber downy mildew,100%
"CCC(Nc1ncnc(C)c1Cl)c1ccc(OC(F)F)cc1 (centres unmarked) [diflumetorim, reference compound]",inhibition at 8.3 ppm,rice blast,0%
same,inhibition at 25 ppm,cucumber gray mold,0%
same,pest or weed control at 600 µg/mL,Diamond back moth; 600 mg/L,0%
same,pest or weed control at 600 µg/mL,armyworm,0%
same,pest or weed control at 10 µg/mL,[1]; [4],0%
same,pest or weed control at 100 µg/mL,[1]; [4],35%
same,pest or weed control at 600 µg/mL,[1]; [4],100%
same,pest or weed control at 10 µg/mL,"carmine spider mite; 10 mg/L, contrastive test, read-out: Insecticidal activity against carmine spider mite (% )",73%
same,pest or weed control at 100 µg/mL,"carmine spider mite; 100 mg/L, contrastive test, read-out: Insecticidal activity against carmine spider mite (% )",100%
same,pest or weed control at 600 µg/mL,"carmine spider mite; 600 mg/L, contrastive test, read-out: Insecticidal activity against carmine spider mite (% )",100%
same,pest or weed control at 6.25 µg/mL,"corn rust; read-out: control effect against corn rust (%), 6.25 mg/L, protectant activity",0%
same,pest or weed control at 25 µg/mL,corn rust; protectant activity,10%
same,pest or weed control at 100 µg/mL,corn rust; protectant activity,80%
same,pest or weed control at 400 µg/mL,corn rust; protectant activity,100%
same,pest or weed control at 6.25 µg/mL,wheat powdery mildew,90%
same,pest or weed control at 25 µg/mL,wheat powdery mildew,95%
same,pest or weed control at 100 µg/mL,wheat powdery mildew,95%
same,pest or weed control at 400 µg/mL,wheat powdery mildew,100%
same,pest or weed control at 6.25 µg/mL,cucumber downy mildew,0%
same,pest or weed control at 12.5 µg/mL,cucumber downy mildew,15%
same,pest or weed control at 25 µg/mL,cucumber downy mildew,70%
same,pest or weed control at 50 µg/mL,cucumber downy mildew,100%
same,pest or weed control at 100 µg/mL,cucumber downy mildew,100%
same,pest or weed control at 400 µg/mL,cucumber downy mildew,100%
